Read-outs that look alike come from different tables or passages of the source.
Legend:
[1] = target: T1, human serotonin transporters (Homo sapiens, UniProt P31645); assay: Serotonin Transporter Binding Assay ([3H]-citalopram displacement, HEK-hSERT cell membranes); settings: 1 nM [3H]-citalopram, 1 hr at 25° C.
T1 construct: expressed in transfected cells; membrane homogenates
Experimental: HEK-293 cells that stably express human serotonin transporters (HEK-hSERT cells) were grown at 37° C. in 5% CO2 as a monolayer in medium consisting of EMEM supplemented with 10% fetal bovine serum and G418 sulfate (500 μg/mL). […] Cells were transferred from plates to polypropylene tubes (16×100 mm), centrifuged at 1,200×g for 5 min and were frozen at −80° C. until assay. Following centrifugation, pellets were resuspended by homogenization in buffer consisting of 50 mM Tris (pH 7.7 at 25° C.), 120 mM NaCl and 5 mM KCl and then centrifuged at 32,000×g for 10 min. Following centrifugation, supernatants were discarded and pellets were resuspended in buffer consisting of 50 mM Tris (pH 7.4 at 25° C.), 150 mM NaCl and 5 mM KCl. Membrane homogenates (200 μl/plate) were incubated with 1 nM [^3H]-citalopram (specific activity=85 Ci/mMol) and increasing concentrations of test compounds for 1 hr at 25° C. in a total volume of 250 μl. The assay buffer consisted of 50 mM Tris (pH 7.4 at 25° C.), 120 mM NaCl and 5 mM KCl (pH 7.4 with conc. HCl). Plates were incubated for 1 hr at 25° C., then filtered through 0.5% PEI treated Whatman GF/B filters using a Brandel cell harvester. Filters were washed three times with 3 mL of ice-cold tris wash buffer. Non-specific binding was defined with 10 μM fluoxetine. Amount of radioligand bound in the presence and absence of competitor was analyzed by plotting (−)log drug concentration versus the amount of radioligand specifically bound. The midpoint of the displacement curve (IC50, nM), signifies the potency.

[2] = target: T2, human norepinephrine transporters (Homo sapiens, UniProt P23975); assay: Norepinephrine Transporter Binding Assay ([3H]-nisoxetine displacement, hNET cell membranes); settings: 2.7 nM [3H]-nisoxetine, 1 hr at 4° C., read-out: NE reuptake binding Ki
T2 construct: the text also calls them 'HEK-hNET cells'); membrane homogenates
Experimental: MDCK cells that stably express human norepinephrine transporters (HEK-hNET cells) were supplied by Receptor Biology, Inc. Pellets were resuspended by homogenization in buffer consisting of 50 mM Tris (pH 7.4 at 25° C.), 120 mM NaCl and 5 mM KCl. Membrane homogenates (200 μl/well, 8 ug protein) were incubated with 2.7 nM [^3H]-nisoxetine (specific activity=80 Ci/mMol) and increasing concentrations of test compounds for 1 hr at 4° C. in a total volume of 250 μl. The assay buffer consisted of 50 mM Tris (pH 7.4 at 25° C.), 120 mM NaCl and 5 mM KCl (pH 7.4 with conc. HCl). Plates were incubated for 1 hr at 4° C., then filtered through 0.5% PEI treated Whatman GF/B filters using a Brandel cell harvester. Filters were washed three times with 3 mL of ice-cold tris wash buffer. Non-specific binding was defined with 10 μM desipramine. Amount of radioligand bound in the presence and absence of competitor was analyzed by plotting (−)log drug concentration versus the amount of radioligand specifically bound. The midpoint of the displacement curve (IC50, nM), signifies the potency. Ki values were calculated using the method of Cheng and Prusoff (1973).

T2 sequence (P23975 whole entry): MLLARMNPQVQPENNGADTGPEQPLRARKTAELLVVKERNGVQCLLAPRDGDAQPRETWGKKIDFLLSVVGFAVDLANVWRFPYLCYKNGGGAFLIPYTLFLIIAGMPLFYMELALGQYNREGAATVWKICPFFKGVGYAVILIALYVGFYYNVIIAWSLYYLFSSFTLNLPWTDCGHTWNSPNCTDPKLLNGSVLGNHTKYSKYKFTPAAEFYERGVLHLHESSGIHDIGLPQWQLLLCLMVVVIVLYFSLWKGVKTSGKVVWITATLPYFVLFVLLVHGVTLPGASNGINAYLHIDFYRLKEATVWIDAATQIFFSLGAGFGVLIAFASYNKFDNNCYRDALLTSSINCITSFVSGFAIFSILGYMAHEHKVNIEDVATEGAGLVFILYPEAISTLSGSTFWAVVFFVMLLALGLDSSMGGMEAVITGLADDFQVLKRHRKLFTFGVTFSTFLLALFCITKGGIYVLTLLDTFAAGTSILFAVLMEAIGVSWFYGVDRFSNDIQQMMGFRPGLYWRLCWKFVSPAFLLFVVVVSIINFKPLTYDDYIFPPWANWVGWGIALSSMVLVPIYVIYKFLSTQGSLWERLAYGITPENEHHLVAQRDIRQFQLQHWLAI
T1 sequence (P31645 whole entry): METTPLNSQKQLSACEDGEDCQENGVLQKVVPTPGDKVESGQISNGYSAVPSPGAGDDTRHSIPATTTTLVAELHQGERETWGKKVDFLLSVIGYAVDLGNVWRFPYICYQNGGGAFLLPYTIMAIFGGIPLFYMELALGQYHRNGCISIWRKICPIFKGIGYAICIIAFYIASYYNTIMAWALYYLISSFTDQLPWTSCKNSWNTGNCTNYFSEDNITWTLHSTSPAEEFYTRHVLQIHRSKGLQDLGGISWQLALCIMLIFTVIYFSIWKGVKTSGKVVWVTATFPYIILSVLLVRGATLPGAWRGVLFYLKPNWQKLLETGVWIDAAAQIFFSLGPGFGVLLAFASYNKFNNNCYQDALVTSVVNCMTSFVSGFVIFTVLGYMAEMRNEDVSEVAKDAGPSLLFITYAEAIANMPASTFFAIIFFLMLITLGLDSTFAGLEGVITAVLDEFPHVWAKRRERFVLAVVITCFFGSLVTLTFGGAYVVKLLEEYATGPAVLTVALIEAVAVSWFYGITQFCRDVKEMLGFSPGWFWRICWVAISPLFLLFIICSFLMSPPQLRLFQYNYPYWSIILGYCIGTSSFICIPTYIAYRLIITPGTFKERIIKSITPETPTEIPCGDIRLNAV

SMILES | Ki ([1]; read-out: 5-HT reuptake binding Ki) [nM] | Ki [2] [nM] | Ki ([1]; 5-HT reuptake binding Ki) [nM]
CCn1cc([C@H]2CCC[C@@H]2CN(C)C)c2cc(C#N)ccc21 (relative stereo) [Example 33, Trans-3-(2-dimethylaminomethyl-cyclopentyl)-1-ethyl-1H-indole-5-carbonitrile] | 1 to 10 | > 1000 | 
CC([C@H]1CCCC1c1c[nH]c2ccc(C#N)cc12)N(C)C (single isomer, unassigned; diastereomer a) [Example 46, (+/−) trans-3-[2-(1-dimethylaminoethyl)cyclopentyl]-1H-indole-5-carbonitrile,diastereomer A] |  | > 1000 | < 1

— patent US7105516B2, “Compounds for the treatment of premature ejaculation” (Bristol-Myers Squibb Company, priority 2002, dated 2006)
